{"source": "patent US12150930B2", "about": "(BDR Pharmaceuticals Int'l Pvt. Ltd., priority 2022, dated 2024)", "key": {"[1]": {"assay": "API solubility study in solubilizers/solvents/co-solvents (formulation trials)", "type": "physicochemical", "conditions": "ethanol added after addition of API", "source_text": "During the selection of excipients for formulation of Enzalutamide oral solution, first it is required to select the excipients which are not covered by patent of Enzalutamide capsules and also excipients need to meet IIG limits and useful for product development.\nIn the present invention selection of Solubilizers based on different trials which are like Labrafac Lipophile WL-1349, Labrafil M1944 Cs, Maisine CC, Kolliphor RH 40, Tween 80, Castor Oil, Migloyl 812 etc.\nFurther, here in the present invention selection of Co-solvents also based on trials and experiments which are Propylene glycol, Polyethylene glycol 400, Poly ethylene glycol 200, Ethanol, Glycerine, Maisine CC etc.\nBased on the API solubility study combination of Kolliphor RH 40 with Ethanol and Polyethylene 400 was taken for further study. […]\nProcess for the Preparation: • 1. Dispensed quantity of Polyoxyl 40 hydrogenated castor oil was taken and started heating with maintained temperature of 45° C. of product. Further, Dispensed quantity of glyceryl monolinoleate was added to material of above step under stirring mixing/homogenization process. • 2. […] Further, then dispensed quantity of Ethanol was added to above step of material and continued process of stirring/homogenization then added dispensed quantity of propylene glycol and continued the process till Enzalutamide was dissolved. […]"}, "[2]": {"assay": "Stability of enzalutamide standard solution", "type": "physicochemical", "conditions": "25° C., in ACN diluted with dissolution medium", "method": "In that, 25 ml of ACN was dissolved and diluted with ACN to volume. From this solution, 2 ml of solution was transferred to a 100 ml volumetric flask and diluted with dissolution medium to volume. The standard solution was found stable at 25° C. for 27 h. Sample solution was prepared by adding a 5 ml sample of the present invention in 900 ml of dissolution medium. Further, 2.0 ml of this solution was diluted with 100 ml of dissolution medium."}, "[3]": {"conditions": "cited from earlier work"}, "CACO2 monolayers": {"tested_on": "CACO2 monolayers", "conditions": "across CACO2 monolayers; cited from earlier work"}}}
{"smiles": "CNC(=O)c1ccc(N2C(=S)N(c3ccc(C#N)c(C(F)(F)F)c3)C(=O)C2(C)C)cc1F", "note": "[Enzalutamide]", "values": [{"measurement": "API solubilized during procedure", "setting": "[1]", "result": "approx. 80%"}, {"measurement": "time for which the standard solution was found stable", "setting": "[2]", "result": 27, "unit": "h"}, {"measurement": "Biopharmaceutics Classification System (BCS) class", "setting": "[3]; low solubility and high permeability", "result": "Class 2"}, {"measurement": "effect of pH on enzalutamide solubility", "setting": "[3]; physiological pH range", "result": "not affected by pH"}, {"measurement": "mean apparent permeability coefficient", "setting": "CACO2 monolayers", "result": "3.1e-05", "unit": "cm/s"}]}
